{
  "source": "paper PMC11343376",
  "about": "“In vivo pharmacokinetics of ginsenoside compound K mediated by gut microbiota” (PLOS ONE, 2024)",
  "key": {"[1]": {"test": "Freeze/thaw and long-term stability of QC samples in rat plasma", "type": "physicochemical", "conditions": "n = 6; for Freeze/thaw stability Accuracy: frozen –80°C / thawed 25°C three cycles; for long-term stability Accuracy: –80°C for thirty days", "experimental": "The LQC, MQC, and HQC samples were stored at –80°C for thirty days. The employed samples were tested to assess long-term stability. Six replicates of all QC samples were frozen at –80°C and thawed at 25°C for three cycles, which were then determined to assess the freeze/thaw cycle stability. The variabilities of precision and accuracy should be within15%."}, "[2]": {"test": "Pharmacokinetics of GCK in SPF and pseudo-GF rats after single oral administration (LC-MS/MS of plasma)", "type": "in vivo, Sprague-Dawley (SD) rats", "conditions": "for AUC(0-inf) / Tmax / half-life / AUC(0-t) / CL/F / MRT last / Vd/F / Cmax: Sprague-Dawley, rat, plasma, po, 22.5 mg/kg, GCK 22.5 mg/kg single oral dose; for AUC(0-t): read-out: AUC (0–11); for CL/F: read-out: CLz/F (converted); for MRT last: read-out: MRT(0–11); for Vd/F: read-out: Vz/F; for Cmax: rat plasma, n = 7, mean ± SD", "experimental": "SD rats were randomly divided into two groups: normal control group (SPF group, n = 7) and pseudo-GF group (n = 7). To deplete the gut microbiota, a solution of ampicillin (50 mg/kg), vancomycin (25 mg/kg), neomycin sulfate (50 mg/kg), and metronidazole (50 mg/kg) were orally administered. Fresh antibiotic concoction with fed ampicillin in water (0.25 g/L) were prepared every day for a week. The feces were collected three days after withdrawal, and then the gut bacterial DNA was extracted with a stool DNA kit (Omega, D4015-01) and measured by Nonodrop 3000 spectrophotometer (Shimadzu, Japan).\nThe mass spectrometer analysis was performed on QTRAP 6500^+ low mass spectrometers. The Phenomenex LUNA C18 (2) Reversed Phase (Phenomenex, 150 × 2.0 mm, i.d., 5 μm) was used for the chromatographic separation with a mobile phase of acetonitrile (A) and the aqueous phase of 2 mM ammonium acetate (B) at a flow rate of 0.3 mL/min. The gradient elution procedure was set at 0−2 min: 20%A, 2−3 min: 20−65%A, 3−4 min: 65−75%A, 4−5 min: 75−90%A, 5−6 min: 90−100%A, and the re-equilibration time was set for 5 mins with 20%A after gradient elution. The tailing factors under the selected chromatographic conditions were calculated as 0.993 and 0.996 for GCK and PPD, respectively, while the theoretical plates were measured as 1.13 × 10^4. The injection volume was 10 μL with the temperature of column at 40°C. The mass spectrometer parameters were optimized as follow, Curtain Gas (CUR), 35; collision gas, 9;, ionspray voltage,-4500 V; temperature, 450°C; curtain gas, 35 psi; ion source gas 1, 50 psi; ion source gas 2, 55 psi. Both GCK and PPD were analyzed in multiple reaction monitoring (MRM) mode, shown as Fig 1.\nAfter fasted for 12 h, all animals were once orally administrated with a medium dose of GCK (22.5 mg/kg) in 0.9% normal saline. Blood samples were collected from the tail vein at 0 h, 0.5 h, 1 h, 1.5 h, 2.5 h, 3 h, 3.5 h, 4 h, 5 h, 6 h, 7 h, 9.5 h, and 11 h after oral administration. All blood samples were immediately centrifuged at 4000 rpm for 20 min at 4°C. Approximate 100 μL of supernatant was collected and stored at -80°C for analysis. Non-compartmental model analysis was operated on DAS 2.0 software of the Chinese Pharmacological Society, and pharmacokinetic parameters were calculated accordingly.\nThe blood samples (50 μL) were mixed with 150 μL of digoxin solution (Internal standard (IS), 3.33 ng/mL), subsequently vortex-mixed and centrifuged at 1.4 × 10^4 rpm (4°C) to remove the precipitated proteins for 10 min, respectively. Finally, 100 μL of supernatant was subjected to LC-MS/ MS analysis.\nPharmacokinetics parameters including AUC, terminal elimination half-life (T1/2), mean retention time (MRT), apparent distribution volume (Vz/ F), and clearance rate (CL) were calculated using non-compartmental model analysis (DAS 2.0 software, Chinese Pharmacological Association, China). Other parameters, such as maximum plasma concentration (Cmax) and time to maximum plasma concentration (Tmax), were obtained directly from the plasma concentration-time diagram. All data were expressed as mean ± SD. Significant differences were marked by the symbols ** p < 0.01, *** p < 0.001, and **** p < 0.0001."}, "[3]": {"design": "method as in PMID 28955238", "conditions": "human plasma, single dose of oral GCK; ref [14]; cited from earlier work"}, "[4]": {"conditions": "high QC (GCK 552, PPD 456 ng/mL)"}, "[5]": {"conditions": "low QC (GCK 10.8, PPD 8.91 ng/mL)"}, "[6]": {"conditions": "middle QC (GCK 86.3, PPD 71.3 ng/mL)"}, "[7]": {"conditions": "pseudo-GF rats compared with SPF rats"}},
  "note": "Where two headings read alike, the source gives them in different places.",
  "data": [
    {"smiles": "CC(C)=CCCC(C)(OC1OC(CO)C(O)C(O)C1O)C1CCC2(C)C1C(O)CC1C3(C)CCC(O)C(C)(C)C3CCC12C", "note": "(stereo not drawn) [GCK, Ginsenoside Compound K]", "values": [
      {"measurement": "Freeze/thaw stability Accuracy", "setting": "[1]; [4]", "value": 104.11, "unit": "%"},
      {"measurement": "Freeze/thaw stability Accuracy", "setting": "[1]; [5]", "value": 102.76, "unit": "%"},
      {"measurement": "Freeze/thaw stability Accuracy", "setting": "[1]; [6]", "value": 106.47, "unit": "%"},
      {"measurement": "long-term stability Accuracy", "setting": "[1]; [4]", "value": 103.91, "unit": "%"},
      {"measurement": "long-term stability Accuracy", "setting": "[1]; [5]", "value": 95.56, "unit": "%"},
      {"measurement": "long-term stability Accuracy", "setting": "[1]; [6]", "value": 103.32, "unit": "%"},
      {"measurement": "AUC(0-inf)", "setting": "[2]; SPF group", "value": "679 ± 284", "unit": "ng·h/mL"},
      {"measurement": "Tmax", "setting": "[2]; SPF group", "value": "3.36 ± 1.25", "unit": "h"},
      {"measurement": "half-life", "setting": "[2]; SPF group", "value": "2.2 ± 1.69", "unit": "h"},
      {"measurement": "AUC(0-t)", "setting": "[2]; SPF group", "value": "586 ± 161", "unit": "ng·h/mL"},
      {"measurement": "CL/F", "setting": "[2]; SPF group", "value": 632, "unit": "mL/min/kg"},
      {"measurement": "MRT last", "setting": "[2]; SPF group", "value": "4.16 ± 1.11", "unit": "h"},
      {"measurement": "Vd/F", "setting": "[2]; SPF group", "value": "96.5 ± 44.9", "unit": "L/kg"},
      {"measurement": "Cmax", "setting": "[2]; SPF group", "value": "162 ± 46.9", "unit": "ng/mL"},
      {"measurement": "AUC(0-inf)", "setting": "[2]; pseudo-GF group", "value": "2300 ± 1630", "unit": "ng·h/mL"},
      {"measurement": "Tmax", "setting": "[2]; pseudo-GF group", "value": "5.86 ± 1.35", "unit": "h"},
      {"measurement": "half-life", "setting": "[2]; pseudo-GF group", "value": "3.93 ± 1.65", "unit": "h"},
      {"measurement": "AUC(0-t)", "setting": "[2]; pseudo-GF group", "value": "1340 ± 402", "unit": "ng·h/mL"},
      {"measurement": "CL/F", "setting": "[2]; pseudo-GF group", "value": 226, "unit": "mL/min/kg"},
      {"measurement": "MRT last", "setting": "[2]; pseudo-GF group", "value": "6.05 ± 0.42", "unit": "h"},
      {"measurement": "Vd/F", "setting": "[2]; pseudo-GF group", "value": "63.2 ± 15.4", "unit": "L/kg"},
      {"measurement": "Cmax", "setting": "[2]; pseudo-GF group", "value": "259 ± 70", "unit": "ng/mL"},
      {"measurement": "AUC increased", "setting": "[2]; pseudo-GF group compared with SPF group", "value": "approximately twice"},
      {"measurement": "AUC 0–11 increased by", "setting": "[2]; [7]", "value": 1.3, "unit": "times"},
      {"measurement": "Cmax times higher than that of SPF rats", "setting": "[2]; [7]", "value": 1.6, "unit": "times"},
      {"measurement": "CLz/F decreased by", "setting": "[2]; pseudo-GF rats compared with SPF rats, P <0.01", "value": 0.6, "unit": "times"}
    ]},
    {"smiles": "CC(C)=CCC[C@](C)(O)[C@H]1CC[C@]2(C)[C@@H]1[C@H](O)C[C@@H]1[C@@]3(C)CC[C@H](O)C(C)(C)[C@@H]3CC[C@]12C", "note": "[PPD, protopanaxadiol]", "values": [
      {"measurement": "Freeze/thaw stability Accuracy", "setting": "[1]; [4]", "value": 89.65, "unit": "%"},
      {"measurement": "Freeze/thaw stability Accuracy", "setting": "[1]; [5]", "value": 92.44, "unit": "%"},
      {"measurement": "Freeze/thaw stability Accuracy", "setting": "[1]; [6]", "value": 93.50, "unit": "%"},
      {"measurement": "long-term stability Accuracy", "setting": "[1]; [4]", "value": 101.93, "unit": "%"},
      {"measurement": "long-term stability Accuracy", "setting": "[1]; [5]", "value": 96.17, "unit": "%"},
      {"measurement": "long-term stability Accuracy", "setting": "[1]; [6]", "value": 97.83, "unit": "%"},
      {"measurement": "Cmax of PPD", "setting": "[3]", "value": "~4.2", "unit": "ng/mL"},
      {"measurement": "T1/2 of PPD", "setting": "[3]", "value": "more than 19 hours"},
      {"measurement": "Tmax of PPD", "setting": "[3]", "value": "~25", "unit": "h"},
      {"measurement": "Detection of the metabolite PPD in rat plasma", "setting": "[2]; after single oral GCK 22.5 mg/kg, both SPF and pseudo-GF groups, LLOQ 4.45 ng/mL", "value": "not detected"}
    ]}
  ]
}
